Values joined by “and” are separate entries in the source; they are usually repeats but may differ in a detail not shown here. Identical values can stand only once. Toxic doses and inconclusive results are not listed. Cut-off read from the data, not from the text of the source: active = T/C of 150% or more; inactive = T/C below 125%.
System: L1210 leukemia ip in BDF1 mice, survival T/C
Assay: NCI In Vivo Anticancer Drug Screen. Data for tumor model L1210 Leukemia (intraperitoneal) in B6D2F1 (BDF1) mice
Conditions: endpoint: mean survival time, higher = longer survival
Summary of the method: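 Transplantable tumor model; survival measured in treated vs vehicle control mice. Value = treated/control.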

[1] = dose: 100.0 mg/kg/injection, schedule: Q04DX003 (ip), vehicle: Klucel (hydroxypropylcellulose) (HPC)
[2] = dose: 200.0 mg/kg/injection, schedule: Q04DX003 (ip), vehicle: Klucel (hydroxypropylcellulose) (HPC)
[3] = dose: 400.0 mg/kg/injection, schedule: Q04DX003 (ip), vehicle: Klucel (hydroxypropylcellulose) (HPC)
[4] = dose: 100.0 mg/kg/injection, schedule: Q04DX003 (ip), vehicle: saline with Tween-80
[5] = dose: 200.0 mg/kg/injection, schedule: Q04DX003 (ip), vehicle: saline with Tween-80
[6] = dose: 400.0 mg/kg/injection, schedule: Q04DX003 (ip), vehicle: saline with Tween-80
[7] = dose: 50.0 mg/kg/injection, schedule: Q01DX009 (ip), vehicle: saline with Tween-80
[8] = dose: 50.0 mg/kg/injection, schedule: Q04DX003 (ip), vehicle: saline with Tween-80
[9] = dose: 200.0 mg/kg/injection, schedule: Q01DX009 (ip), vehicle: saline with Tween-80
[10] = dose: 400.0 mg/kg/injection, schedule: Q01DX009 (ip), vehicle: saline with Tween-80
[11] = dose: 50.0 mg/kg/injection, schedule: Q01DX001 (ip), vehicle: carboxymethylcellulose (CMC)
[12] = dose: 100.0 mg/kg/injection, schedule: Q01DX001 (ip), vehicle: carboxymethylcellulose (CMC)
[13] = dose: 200.0 mg/kg/injection, schedule: Q01DX001 (ip), vehicle: carboxymethylcellulose (CMC)
[14] = dose: 400.0 mg/kg/injection, schedule: Q01DX001 (ip), vehicle: carboxymethylcellulose (CMC)
[15] = dose: 100.0 mg/kg/injection, schedule: Q01DX009 (ip), vehicle: saline with Tween-80
[16] = dose: 25.0 mg/kg/injection, schedule: Q04DX003 (ip), vehicle: saline with Tween-80
[17] = dose: 100.0 mg/kg/injection, schedule: Q01DX009 (ip), vehicle: saline
[18] = dose: 200.0 mg/kg/injection, schedule: Q01DX009 (ip), vehicle: saline
[19] = dose: 400.0 mg/kg/injection, schedule: Q01DX009 (ip), vehicle: saline

Measured: T/C

Cc1ccccc1OCC(=O)Nc1ccc(-c2ccc(NC(=O)COc3ccccc3C)cc2)cc1
inactive: dose: 100.0 mg/kg/injection, schedule: Q04DX002 (ip), vehicle: gum acacia 92 % of control | dose: 200.0 mg/kg/injection, schedule: Q04DX002 (ip), vehicle: gum acacia 95 % of control | dose: 400.0 mg/kg/injection, schedule: Q04DX002 (ip), vehicle: gum acacia 100 % of control

Cc1ccc([Si](C)(C)[Si](C)C)cc1
inactive: [1] 98 % of control | [2] 102 % of control | [3] 105 % of control

Cc1c(N)nc(Br)c2ccccc12
inactive: [4] 105 % of control | [5] 101 % of control | [6] 110 % of control

COC(=O)c1ccc(OC(=O)Nc2ccc(C)cc2)cc1
inactive: dose: 100.0 mg/kg/injection, schedule: Q01DX009 (ip), vehicle: Klucel (hydroxypropylcellulose) (HPC) 101 % of control | dose: 200.0 mg/kg/injection, schedule: Q01DX009 (ip), vehicle: Klucel (hydroxypropylcellulose) (HPC) 100 % of control | dose: 400.0 mg/kg/injection, schedule: Q01DX009 (ip), vehicle: Klucel (hydroxypropylcellulose) (HPC) 101 % of control

CCOC(=O)C1(C(=O)OCC)CCC(O)N1C(=O)c1ccccc1[N+](=O)[O-] (stereo not drawn)
inactive: dose: 50.0 mg/kg/injection, schedule: Q04DX003 (ip), vehicle: Klucel (hydroxypropylcellulose) (HPC) 97 % of control | [1] 91 % of control | [2] 91 % of control

CCCCCCCCCCCCCCCc1cc(O)cc(O)c1
inactive: dose: 50.0 mg/kg/injection, schedule: Q01DX001 (ip), vehicle: other 88 % of control | dose: 200.0 mg/kg/injection, schedule: Q01DX001 (ip), vehicle: other 95 % of control | dose: 400.0 mg/kg/injection, schedule: Q01DX001 (ip), vehicle: other 93 % of control

COc1cccc(NC(=O)CCC(=O)O)c1
inactive: dose: 25.0 mg/kg/injection, schedule: Q01DX009 (ip), vehicle: saline with Tween-80 105 % of control | [7] 100 % of control | [8] 98 % of control | [4] 103 % of control | [9] 88 % of control | [5] 97 % of control | [10] 95 % of control | [6] 103 % of control

Cn1nnc2c1C(=O)c1ccccc1C2=O
inactive: dose: 100.0 mg/kg/injection, schedule: Q04DX003 (ip), vehicle: other 97 % of control | dose: 200.0 mg/kg/injection, schedule: Q04DX003 (ip), vehicle: other 97 % of control

CCOP(=O)(Cc1ccc(Cl)cc1)OCC
inactive: dose: 100.0 mg/kg/injection, schedule: Q01DX009 (ip), vehicle: carboxymethylcellulose (CMC) 102 % of control and 90 % of control | dose: 100.0 mg/kg/injection, schedule: Q04DX002 (ip), vehicle: carboxymethylcellulose (CMC) 98 % of control and 107 % of control | dose: 100.0 mg/kg/injection, schedule: Q04DX003 (ip), vehicle: carboxymethylcellulose (CMC) 96 % of control | dose: 200.0 mg/kg/injection, schedule: Q01DX009 (ip), vehicle: carboxymethylcellulose (CMC) 104 % of control and 107 % of control | dose: 200.0 mg/kg/injection, schedule: Q04DX002 (ip), vehicle: carboxymethylcellulose (CMC) 93 % of control and 101 % of control | dose: 200.0 mg/kg/injection, schedule: Q04DX003 (ip), vehicle: carboxymethylcellulose (CMC) 100 % of control | dose: 400.0 mg/kg/injection, schedule: Q04DX002 (ip), vehicle: carboxymethylcellulose (CMC) 93 % of control and 95 % of control

NC(=O)NC1c2ccccc2-c2ccccc21
inactive: [11] 93 % of control | [12] 93 % of control | [13] 93 % of control | [14] 93 % of control

COc1ccc2c(ccc3nc(C)[nH]c(=O)c32)c1
inactive: dose: 100.0 mg/kg/injection, schedule: Q01DX001 (ip), vehicle: Klucel (hydroxypropylcellulose) (HPC) 91 % of control

c1ccc(CC2SCCCS2)cc1
inactive: [15] 103 % of control | [4] 108 % of control | [9] 88 % of control | [5] 95 % of control | [10] 99 % of control | [6] 95 % of control

O=C(O)CCC(C(=O)O)N1C(=O)C2C3CCC(C3)C2C1=O (stereo not drawn)
inactive: [16] 93 % of control | [8] 96 % of control | [4] 93 % of control and 98 % of control | [5] 95 % of control | [6] 98 % of control

NC(=Nc1ccc(N)cc1)C(N)=Nc1ccc(N)cc1
inactive: [7] 97 % of control | [15] 95 % of control and 98 % of control | [4] 96 % of control | [9] 106 % of control | [5] 98 % of control | [10] 96 % of control and 112 % of control | [6] 91 % of control

CC1=COC(C)(C=O)CC1 (stereo not drawn)
inactive: dose: 222.0 mg/kg/injection, schedule: Q01DX Z (ip), vehicle: methylcellulose (MC) 94 % of control | dose: 333.0 mg/kg/injection, schedule: Q01DX Z (ip), vehicle: methylcellulose (MC) 98 % of control | dose: 500.0 mg/kg/injection, schedule: Q01DX Z (ip), vehicle: methylcellulose (MC) 88 % of control

O=C1C2C(Cl)C(Cl)C(Cl)C(Cl)C2C(=O)N1NC1CCC([N+](=O)[O-])CC1[N+](=O)[O-] (stereo not drawn)
inactive: [17] 91 % of control | dose: 100.0 mg/kg/injection, schedule: Q04DX002 (ip), vehicle: saline 92 % of control | [18] 94 % of control | dose: 200.0 mg/kg/injection, schedule: Q04DX002 (ip), vehicle: saline 106 % of control | [19] 98 % of control | dose: 400.0 mg/kg/injection, schedule: Q04DX002 (ip), vehicle: saline 95 % of control

CCCCCCCCCCCCCCCCC1(CC)NC(=O)NC1=O (stereo not drawn)
inactive: [1] 95 % of control | [2] 93 % of control | [3] 96 % of control

CC(=O)NCCN(C)C
inactive: [17] 97 % of control | dose: 100.0 mg/kg/injection, schedule: Q04DX003 (ip), vehicle: saline 103 % of control | [18] 96 % of control | dose: 200.0 mg/kg/injection, schedule: Q04DX003 (ip), vehicle: saline 101 % of control | [19] 97 % of control | dose: 400.0 mg/kg/injection, schedule: Q04DX003 (ip), vehicle: saline 97 % of control

CCCCCCCCC1SC1CCCCCCCC(=O)OCCCOC(=O)CCCCCCCC1SC1CCCCCCCC (stereo not drawn)
inactive: [15] 98 % of control | [9] 93 % of control | [10] 96 % of control

Cc1ccc(S(=O)(=O)OCC2C3CCC(C4CCC43)C2COS(=O)(=O)c2ccc(C)cc2)cc1 (stereo not drawn)
inactive: [1] 96 % of control | [2] 93 % of control | [3] 91 % of control

O=[N+]([O-])c1ccc(OCCN2CCCC2)cc1
inactive: dose: 75.0 mg/kg/injection, schedule: Q01DX001 (ip), vehicle: saline 93 % of control | dose: 150.0 mg/kg/injection, schedule: Q01DX001 (ip), vehicle: saline 98 % of control

CN(C)c1ccc(/C=C(\C#N)c2ccc([N+](=O)[O-])cc2)c(Cl)c1
inactive: [4] 91 % of control | [5] 96 % of control | [6] 96 % of control

CCCCCCCCCCCCNc1ccccn1
inactive: [4] 88 % of control | [5] 94 % of control | [6] 96 % of control

CCOC(=O)CC/C(=C/c1ccccc1)[N+](=O)[O-]
inactive: [16] 97 % of control and 104 % of control | [8] 94 % of control and 98 % of control | [4] 106 % of control and 107 % of control and 121 % of control | [5] 89 % of control

CC(=O)N1c2ccccc2Sc2ccc(C(=O)CCl)cc21
inactive: [11] 96 % of control | [12] 98 % of control | [13] 96 % of control | [14] 98 % of control

From PubChem BioAssay AID248 (DTP/NCI, 2004)
